# Patent US20230286970A1, “NOVEL OXADIAZOLE-BASED SELECTIVE HDAC6 INHIBITORS” (ITALFARMACO S.P.A., priority 2020, published 2023)
# How the values were obtained:
# recombinant human HDAC1 = recombinant human HDAC1 (Homo sapiens (Human), UniProt Q13547); assay: Enzymatic screening, HDAC1 inhibition (fluorogenic FdL_G substrate); assay type: biochemical
# Outline: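 Recombinant human HDAC1 inhibition was measured fluorometrically using the FLUOR DE LYS-Green (FdL_G) substrate. Compounds at 8 doses (1% DMSO final) in Tris-HCl pH 8 buffer with NaCl, Tween-20 and glycerol were preincubated in triplicate with enzyme and 1 mg/mL BSA, then given substrate. Developer I plus 2 μM TSA was added, and fluorescence read after 25 minutes in the dark.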
# recombinant human HDAC6 = recombinant human HDAC6 (Homo sapiens (Human), UniProt Q9UBN7); assay: Enzymatic screening, HDAC6 inhibition (fluorogenic FdL_G substrate); assay type: biochemical
# Outline: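 Enzyme was preincubated with compound (8 doses, triplicate, 1% DMSO) in 25 mM Tris-HCl pH 8, 130 mM NaCl, 0.05% Tween-20, 10% glycerol, with BSA. A FLUOR DE LYS-Green substrate was then added, and fluorescence was read after developer plus 2 μM TSA.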
# recombinant human HDAC1, sequence (Q13547 whole entry): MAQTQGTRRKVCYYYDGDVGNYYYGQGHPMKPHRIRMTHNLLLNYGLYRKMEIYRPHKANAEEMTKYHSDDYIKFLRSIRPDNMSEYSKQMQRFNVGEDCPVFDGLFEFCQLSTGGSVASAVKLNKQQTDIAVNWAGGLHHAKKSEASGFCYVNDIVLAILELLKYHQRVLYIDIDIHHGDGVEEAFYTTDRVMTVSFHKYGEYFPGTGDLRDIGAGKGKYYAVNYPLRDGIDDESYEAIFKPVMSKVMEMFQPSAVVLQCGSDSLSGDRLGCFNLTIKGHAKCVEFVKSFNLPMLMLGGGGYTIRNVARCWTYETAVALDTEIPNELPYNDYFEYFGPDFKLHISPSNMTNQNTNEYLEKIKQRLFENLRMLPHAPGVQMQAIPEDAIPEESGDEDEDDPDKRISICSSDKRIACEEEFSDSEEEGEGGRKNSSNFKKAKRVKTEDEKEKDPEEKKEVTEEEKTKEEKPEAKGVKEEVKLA
# recombinant human HDAC6, sequence (Q9UBN7 whole entry): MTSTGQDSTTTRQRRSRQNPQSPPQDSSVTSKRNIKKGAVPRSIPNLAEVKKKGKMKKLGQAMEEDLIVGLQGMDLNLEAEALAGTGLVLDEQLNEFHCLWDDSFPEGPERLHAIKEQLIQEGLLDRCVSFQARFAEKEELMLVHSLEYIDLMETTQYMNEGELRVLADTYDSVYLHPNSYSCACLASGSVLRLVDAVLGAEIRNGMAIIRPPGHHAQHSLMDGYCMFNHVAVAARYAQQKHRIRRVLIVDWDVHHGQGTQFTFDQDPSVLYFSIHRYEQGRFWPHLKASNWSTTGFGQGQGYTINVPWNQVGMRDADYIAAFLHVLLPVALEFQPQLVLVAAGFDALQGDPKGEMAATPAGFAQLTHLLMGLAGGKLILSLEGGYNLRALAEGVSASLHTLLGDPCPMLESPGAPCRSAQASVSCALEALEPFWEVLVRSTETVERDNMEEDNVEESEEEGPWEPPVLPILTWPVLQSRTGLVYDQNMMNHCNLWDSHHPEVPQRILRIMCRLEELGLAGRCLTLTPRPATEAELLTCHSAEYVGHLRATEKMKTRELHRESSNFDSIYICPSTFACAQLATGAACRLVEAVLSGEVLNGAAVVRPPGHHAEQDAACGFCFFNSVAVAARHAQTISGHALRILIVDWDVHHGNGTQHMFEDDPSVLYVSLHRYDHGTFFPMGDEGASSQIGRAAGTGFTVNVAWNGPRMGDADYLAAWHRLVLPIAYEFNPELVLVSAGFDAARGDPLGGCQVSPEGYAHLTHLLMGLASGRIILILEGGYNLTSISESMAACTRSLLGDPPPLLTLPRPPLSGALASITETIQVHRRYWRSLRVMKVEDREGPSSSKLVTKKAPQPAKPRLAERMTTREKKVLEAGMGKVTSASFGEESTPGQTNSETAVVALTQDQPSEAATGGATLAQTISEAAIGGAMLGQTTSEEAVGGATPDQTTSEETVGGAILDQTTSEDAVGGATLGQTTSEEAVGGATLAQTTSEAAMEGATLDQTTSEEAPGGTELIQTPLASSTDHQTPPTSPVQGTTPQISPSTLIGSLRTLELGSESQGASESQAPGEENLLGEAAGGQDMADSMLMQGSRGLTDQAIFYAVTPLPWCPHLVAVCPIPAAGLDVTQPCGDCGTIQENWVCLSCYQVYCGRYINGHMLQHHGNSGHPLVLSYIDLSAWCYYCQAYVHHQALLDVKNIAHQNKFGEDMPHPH
SMILES,IC50 (recombinant human HDAC1) [nM],IC50 (recombinant human HDAC6) [nM]
"Cn1c(N)nc2cc(-c3nnnn3Cc3ncc(-c4nnc(C(F)F)o4)cn3)ccc21 [compound 291, 5-(1-((5-(5-(difluoromethyl)-1,3,4-oxadiazol-2-yl)pyrimidin-2-yl)methyl)-1H-tetrazol-5-yl)-1-methyl-1H-benzo[d]imidazol-2-amine]",> 200000,129
"O=C1NCc2ccc(-c3cn(Cc4ccc(-c5nnc(C(F)F)o5)cc4)cn3)cc21 [compound 294, 6-(1-(4-(5-(difluoromethyl)-1,3,4-oxadiazol-2-yl)benzyl)-1H-imidazol-4-yl)isoindolin-1-one]",> 200000,78
"Nc1ccc(-c2cn(Cc3c(F)cc(-c4nnc(C(F)F)o4)cc3F)nn2)cc1 [compound 296, 4-(1-(4-(5-(difluoromethyl)-1,3,4-oxadiazol-2-yl)-2,6-difluorobenzyl)-1H-1,2,3-triazol-4-yl)aniline]",> 200000,34
"Nc1cccc(-c2cn(Cc3c(F)cc(-c4nnc(C(F)F)o4)cc3F)nn2)c1 [compound 297, 3-(1-(4-(5-(difluoromethyl)-1,3,4-oxadiazol-2-yl)-2,6-difluorobenzyl)-1H-1,2,3-triazol-4-yl)aniline]",65000,37
"O=C1NCc2ccc(-c3nnnn3Cc3ncc(-c4nnc(C(F)F)o4)cn3)cc21 [compound 298, 6-(1-((5-(5-(difluoromethyl)-1,3,4-oxadiazol-2-yl)pyrimidin-2-yl)methyl)-1H-tetrazol-5-yl)isoindolin-1-one]",> 200000,151
"FC(F)c1nnc(-c2cnc(Cn3nnnc3-c3cccs3)nc2)o1 [compound 299, 2-(difluoromethyl)-5-(2-((5-(thiophen-2-yl)-1H-tetrazol-1-yl)methyl)pyrimidin-5-yl)-1,3,4-oxadiazole]",> 200000,110
"Nc1nc2ccc(-c3cn(Cc4ccc(-c5nnc(C(F)F)o5)cc4)cn3)cc2s1 [compound 306, 6-[1-[[4-[5-(difluoromethyl)-1,3,4-oxadiazol-2-yl]phenyl]methyl]imidazol-4-yl]-1,3-benzothiazol-2-amine]",> 1e+06,32
"FC(F)c1nnc(-c2ccc(Cc3cn(-c4ccc(NC5=NCCN5)cc4)nn3)cc2)o1 [compound 316, N-(4-(4-(4-(5-(difluoromethyl)-1,3,4-oxadiazol-2-yl)benzyl)-1H-1,2,3-triazol-1-yl)phenyl)-4,5-dihydro-1H-imidazol-2-amine]",> 1e+06,56
"O=C1NCc2ccc(-c3cnn(Cc4ccc(-c5nnc(C(F)F)o5)cn4)c3)cc21 [compound 318, 6-[1-[[5-[5-(difluoromethyl)-1,3,4-oxadiazol-2-yl]pyridin-2-yl]methyl]pyrazol-4-yl]-2,3-dihydroisoindol-1-one]",> 1e+06,40
"O=C1NCc2ccc(-c3cnn(Cc4ccc(-c5nnc(C(F)F)o5)cc4)c3)cc21 [compound 319, 6-[1-[[4-[5-(difluoromethyl)-1,3,4-oxadiazol-2-yl]phenyl]methyl]pyrazol-4-yl]-2,3-dihydroisoindol-1-one]",> 1e+06,87
"Cn1c(N)nc2cc(-c3cnn(Cc4ccc(-c5nnc(C(F)F)o5)cn4)c3)ccc21 [compound 320, 5-[1-[[5-[5-(difluoromethyl)-1,3,4-oxadiazol-2-yl]pyridin-2-yl]methyl]pyrazol-4-yl]-1-methylbenzimidazol-2-amine]",> 1e+06,28
"Cn1c(N)nc2cc(-c3cnn(Cc4ccc(-c5nnc(C(F)F)o5)cc4)c3)ccc21 [compound 321, 5-[1-[[4-[5-(difluoromethyl)-1,3,4-oxadiazol-2-yl]phenyl]methyl]pyrazol-4-yl]-1-methylbenzimidazol-2-amine]",> 1e+06,98
"Nc1nc2ccc(-c3cnn(Cc4ccc(-c5nnc(C(F)F)o5)cc4)c3)cc2s1 [compound 326, 6-(1-(4-(5-(difluoromethyl)-1,3,4-oxadiazol-2-yl)benzyl)-1H-pyrazol-4-yl)benzo[d]thiazol-2-amine]",> 1e+06,219

# Further lines, results first:
IC50 (recombinant human HDAC1) [nM],IC50 (recombinant human HDAC6) [nM],SMILES
> 200000,67,"Nc1nc2cc(-c3cn(Cc4ccc(-c5nnc(C(F)F)o5)cc4)cn3)ccc2s1 [compound 300, 5-(1-(4-(5-(difluoromethyl)-1,3,4-oxadiazol-2-yl)benzyl)-1H-imidazol-4-yl)benzo[d]thiazol-2-amine]"
> 1e+06,49,"CS(=O)(=O)NCC(c1ccc(-c2nnc(C(F)F)o2)cc1)n1cc(-c2ccc(N)nc2)nn1 (stereo not drawn) [compound 302, N-[2-[4-(6-aminopyridin-3-yl)triazol-1-yl]-2-[4-[5-(difluoromethyl)-1,3,4-oxadiazol-2-yl]phenyl]ethyl]methanesulfonamide]"
> 1e+06,62,"Nc1ccc(-c2cn(C(CCCN3CCCCC3)c3ccc(-c4nnc(C(F)F)o4)cc3)nn2)cn1 (stereo not drawn) [compound 303, 5-[1-[1-[4-[5-(difluoromethyl)-1,3,4-oxadiazol-2-yl]phenyl]-4-piperidin-1-ylbutyl]triazol-4-yl]pyridin-2-amine]"
> 1e+06,35,"Nc1ccc(-c2cn(Cc3ncc(-c4nnc(C(F)F)o4)cc3F)nn2)cn1 [compound 304, 5-[1-[[5-[5-(difluoromethyl)-1,3,4-oxadiazol-2-yl]-3-fluoropyridin-2-yl]methyl]triazol-4-yl]pyridin-2-amine]"
> 1e+06,11,"Nc1nc2ccc(-c3cn(Cc4ccc(-c5nnc(C(F)F)o5)cn4)cn3)cc2s1 [compound 307, 6-[1-[[5-[5-(difluoromethyl)-1,3,4-oxadiazol-2-yl]pyridin-2-yl]methyl]imidazol-4-yl]-1,3-benzothiazol-2-amine]"
> 1e+06,15,"Nc1nc2cc(-c3cn(Cc4ccc(-c5nnc(C(F)F)o5)cn4)cn3)ccc2o1 [compound 308, 5-(1-((5-(5-(difluoromethyl)-1,3,4-oxadiazol-2-yl)pyridin-2-yl)methyl)-1H-imidazol-4-yl)benzo[d]oxazol-2-amine]"
> 1e+06,138,"CS(=O)(=O)NCC[C@@H](c1ccc(-c2nnc(C(F)F)o2)cc1)n1cc(-c2ccc(N)nc2)nn1 [compound 310, N-[(3S)-3-[4-(6-aminopyridin-3-yl)triazol-1-yl]-3-[4-[5-(difluoromethyl)-1,3,4-oxadiazol-2-yl]phenyl]propyl]methanesulfonamide]"
> 1e+06,25,"CS(=O)(=O)NCC[C@H](c1ccc(-c2nnc(C(F)F)o2)cc1)n1cc(-c2ccc(N)nc2)nn1 [compound 311, N-[(3R)-3-[4-(6-aminopyridin-3-yl)triazol-1-yl]-3-[4-[5-(difluoromethyl)-1,3,4-oxadiazol-2-yl]phenyl]propyl]methanesulfonamide]"
> 1e+06,41,"Nc1ccc(-c2cn([C@@H](CN3CCCC3)c3ccc(-c4nnc(C(F)F)o4)cc3)nn2)cn1 [compound 312, 5-[1-[(1R)-1-[4-[5-(difluoromethyl)-1,3,4-oxadiazol-2-yl]phenyl]-2-pyrrolidin-1-ylethyl]triazol-4-yl]pyridin-2-amine]"
> 1e+06,308,"Nc1ccc(-c2cn([C@H](CN3CCCC3)c3ccc(-c4nnc(C(F)F)o4)cc3)nn2)cn1 [compound 313, 5-[1-[(1S)-1-[4-[5-(difluoromethyl)-1,3,4-oxadiazol-2-yl]phenyl]-2-pyrrolidin-1-ylethyl]triazol-4-yl]pyridin-2-amine]"
> 1e+06,22,"Nc1ccc(-c2cn([C@@H](CO)c3ccc(-c4nnc(C(F)F)o4)cc3)nn2)cn1 [compound 314, (2R)-2-[4-(6-aminopyridin-3-yl)triazol-1-yl]-2-[4-[5-(difluoromethyl)-1,3,4-oxadiazol-2-yl]phenyl]ethanol]"
> 1e+06,668,"Nc1ccc(-n2cc(Cc3ccc(-c4nnc(C(F)F)o4)cc3)nn2)cc1 [compound 315, 4-[4-[[4-[5-(difluoromethyl)-1,3,4-oxadiazol-2-yl]phenyl]methyl]triazol-1-yl]aniline]"
> 1e+06,34,"Nc1ncnc2cc(-c3cn(Cc4ccc(-c5nnc(C(F)F)o5)cn4)nn3)ccc12 [compound 317, 7-[1-[[5-[5-(difluoromethyl)-1,3,4-oxadiazol-2-yl]pyridin-2-yl]methyl]triazol-4-yl]quinazolin-4-amine]"
> 1e+06,17,"Nc1nc2cc(-c3cn(Cc4ccc(-c5nnc(C(F)F)o5)cn4)cn3)ccc2s1 [compound 322, 5-[1-[[5-[5-(difluoromethyl)-1,3,4-oxadiazol-2-yl]pyridin-2-yl]methyl]imidazol-4-yl]-1,3-benzothiazol-2-amine]"
47900,49,"Nc1ccc(-c2cn(C(CCN3CCCC3)c3ccc(-c4nnc(C(F)F)o4)cc3)nn2)cn1 (stereo not drawn) [compound 323, 5-(1-(1-(4-(5-(difluoromethyl)-1,3,4-oxadiazol-2-yl)phenyl)-3-(pyrrolidin-1-yl)propyl)-1H-1,2,3-triazol-4-yl)pyridin-2-amine]"
> 1e+06,18,"CC1(C)C(=O)Nc2ccc(-c3cn(Cc4ccc(-c5nnc(C(F)F)o5)cn4)nn3)cc21 [compound 324, 5-[1-[[5-[5-(difluoromethyl)-1,3,4-oxadiazol-2-yl]pyridin-2-yl]methyl]triazol-4-yl]-3,3-dimethyl-1H-indol-2-one]"
> 1e+06,26,"O=C1Cc2cc(-c3cn(Cc4ccc(-c5nnc(C(F)F)o5)cn4)nn3)ccc2N1 [compound 325, 5-[1-[[5-[5-(difluoromethyl)-1,3,4-oxadiazol-2-yl]pyridin-2-yl]methyl]triazol-4-yl]-1,3-dihydroindol-2-one]"
